From patent US11279730B2, “Oxysterols and methods of use thereof” (Sage Therapeutics, Inc., priority 2016, dated 2022)

Legend:
[1] = biological target: T1, GlunN1/GluN2A glutamate receptors (Homo sapiens, UniProt Q05586+Q12879); test: Whole-cell patch clamp of mammalian cells (Ionworks Barracuda, IWB), NMDA potentiation (PAM), GluN2A; assay type: cell-based; settings: peak current amplitude; for GluN2A PCA IWB Ephys % potentiation at 3 μM: 3 μM test compound, co-application with EC20 L-glutamate and 30 μM glycine; for EC50: 8-point concentration-response, read-out: GluN2A PCA EC50; for Emax: maximal potentiation, read-out: GluN2A PCA Emax (%)
T1 construct: expressed in transfected cells
Protocol: (§1) NMDA potentiation in mammalian cells which expressed NMDA receptors was assessed using the whole cell patch clamp to determine the PAM activity of compounds as described below. An automatic patch-clamp system can be used determine the […] activity of compounds as described below.
(§2) The whole-cell patch-clamp technique was used to investigate the effects of positive allosteric modulating activity of test compounds on GlunN1/GluN2A and GluN2B glutamate receptors expressed in mammalian cells.
HEK293 cells were transformed with adenovirus 5 DNA and transfected with cDNA encoding the human GRIN1/GRIN2A genes. Stable transfectants were selected using G418 and Zeocin-resistance genes incorporated into the expression plasmid and selection pressure maintained with G418 and Zeocin in the medium. Cells were cultured in Dulbecco's Modified Eagle Medium/Nutrient Mixture (D-MEM/F-12) supplemented with 10% fetal bovine serum, 100 μg/ml penicillin G sodium, 100 μg/ml streptomycin sulphate, 100 μg/ml Zeocin, 5 μg/ml blasticidin and 500 μg/ml G418.
(§3) Test article effects were evaluated in 8-point concentration-response format (4 replicate wells/concentration). All test and control solutions contained 0.3% DMSO and 0.01% Kolliphor® EL (C5135, Sigma). The test article formulations were loaded in a 384-well compound plate using an automated liquid handling system (SciClone ALH3000, Caliper LifeSciences). The measurements were performed using Ion Works Barracuda platform following this procedure:
(§4) • a) Intracellular solution (mM): 50 mM CsCl, 90 mM CsF, 2 mM MgCl2, 5 mM EGTA, 10 mM HEPES. Adjust to pH 7.2 with CsOH. • b) Extracellular solution, HB-PS (composition in mM): NaCl, 137; KCl, 1.0; CaCl2, 5; HEPES, 10; Glucose, 10; pH adjusted to 7.4 with NaOH (refrigerated until use). • c) Holding potential: −70 mV, potential during agonist/PAM application: −40 mV. Recording Procedure: • a) Extracellular buffer will be loaded into the PPC plate wells (11 μL per well). Cell suspension will be pipetted into the wells (9 μL per well) of the PPC planar electrode. • b) Whole-cell recording configuration will be established via patch perforation with membrane currents recorded by on-board patch clamp amplifiers. • c) Two recordings (scans) will be performed. First, during pre-application of test article alone (duration of pre-application—5 min) and second, during test articles and agonist (EC20 L-glutamate and 30 μM glycine) co-application to detect positive modulatory effects of the test article.
(§5) Test Article Administration: The first pre-application will consist of the addition of 20 μL of 2× concentrated test article solution and, second, of 20 μL of 1× concentrated test article and agonist at 10 μL/s (2 second total application time).
(§6) Potentiating effect of positive allosteric modulators (PAM) on the channel will be calculated as % activation=(IPAM/IEC10-30)×100%−100% where IPAM will be the L-glutamate EC10-30-elicited current in presence of various concentrations of test articles and IEC20 will be the mean current elicited with L-glutamate EC20. PAM concentration-response data will be fitted to an equation of the form: % Activation=% L-glutamate EC20+{(% MAX−% L-glutamate EC20)/[1+([Test]/EC50)^N]} where [Test] will be the concentration of PAM (test article), EC50 will be the concentration of PAM producing half-maximal activation, N will be the Hill coefficient, % L-glutamate EC20 will be the percentage of the current Elicited with L-glutamate EC20, % MAX is the percentage of the current activated with the highest dose of PAM co-admitted with L-glutamate EC20 and % Activation will be the percentage of the current elicited with L-glutamate EC10-30 at each PAM concentration.
(§7) The maximal amplitude of the evoked currents are measured and defined as Peak Current Amplitude (PCA).

[2] = biological target: T2, GluN2B glutamate receptors (Homo sapiens, UniProt Q05586+Q13224); test: Whole-cell patch clamp of mammalian cells (Ionworks Barracuda, IWB), NMDA potentiation (PAM), GluN2B; assay type: cell-based; settings: peak current amplitude; for GluN2B PCA IWB Ephys % potentiation at 3 μM: 3 μM test compound, co-application with EC20 L-glutamate and 30 μM glycine; for EC50: 8-point concentration-response, read-out: GluN2B PCA EC50; for Emax: maximal potentiation, read-out: GluN2B PCA Emax (%)
T2 construct: expressed in transfected cells
Protocol: as §1, §2, §3, §4, §5, §6, §7

T1 sequence (Q12879 23-1464, other chains not shown): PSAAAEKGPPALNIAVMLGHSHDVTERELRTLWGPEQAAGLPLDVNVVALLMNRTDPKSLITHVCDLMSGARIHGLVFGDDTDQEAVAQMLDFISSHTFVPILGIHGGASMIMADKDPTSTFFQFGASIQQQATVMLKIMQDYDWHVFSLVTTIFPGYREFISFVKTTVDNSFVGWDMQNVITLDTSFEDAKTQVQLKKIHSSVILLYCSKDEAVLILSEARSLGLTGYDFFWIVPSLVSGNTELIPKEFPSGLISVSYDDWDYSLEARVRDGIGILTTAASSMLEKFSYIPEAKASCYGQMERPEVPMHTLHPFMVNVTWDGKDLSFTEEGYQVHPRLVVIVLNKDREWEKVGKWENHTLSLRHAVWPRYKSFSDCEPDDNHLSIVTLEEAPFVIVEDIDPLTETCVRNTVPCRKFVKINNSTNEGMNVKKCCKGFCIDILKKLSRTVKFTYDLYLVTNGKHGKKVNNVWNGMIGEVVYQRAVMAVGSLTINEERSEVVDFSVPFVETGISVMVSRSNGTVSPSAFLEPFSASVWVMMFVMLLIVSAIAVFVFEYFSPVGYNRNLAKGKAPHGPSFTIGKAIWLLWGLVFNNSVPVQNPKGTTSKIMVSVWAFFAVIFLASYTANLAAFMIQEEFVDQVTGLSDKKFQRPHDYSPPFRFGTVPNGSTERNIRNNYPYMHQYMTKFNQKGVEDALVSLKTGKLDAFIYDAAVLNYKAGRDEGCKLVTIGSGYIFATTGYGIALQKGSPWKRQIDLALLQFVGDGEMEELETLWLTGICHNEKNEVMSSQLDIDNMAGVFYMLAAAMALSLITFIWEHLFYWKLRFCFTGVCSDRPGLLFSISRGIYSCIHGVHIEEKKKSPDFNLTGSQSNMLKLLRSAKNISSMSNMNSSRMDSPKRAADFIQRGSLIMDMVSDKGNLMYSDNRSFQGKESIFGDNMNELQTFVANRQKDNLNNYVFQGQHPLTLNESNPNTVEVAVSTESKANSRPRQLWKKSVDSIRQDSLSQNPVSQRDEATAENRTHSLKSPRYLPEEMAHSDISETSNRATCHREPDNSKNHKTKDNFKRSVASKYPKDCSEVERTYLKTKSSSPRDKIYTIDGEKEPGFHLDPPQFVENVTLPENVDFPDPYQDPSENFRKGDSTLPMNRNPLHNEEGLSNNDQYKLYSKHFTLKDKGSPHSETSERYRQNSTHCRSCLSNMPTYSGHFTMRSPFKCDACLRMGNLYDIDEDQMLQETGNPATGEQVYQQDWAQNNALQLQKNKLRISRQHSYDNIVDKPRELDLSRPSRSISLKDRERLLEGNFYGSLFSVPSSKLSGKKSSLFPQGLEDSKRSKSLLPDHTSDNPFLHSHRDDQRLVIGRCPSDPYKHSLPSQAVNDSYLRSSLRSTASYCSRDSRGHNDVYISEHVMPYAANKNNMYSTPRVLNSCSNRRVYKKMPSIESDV
T2 sequence (Q13224 27-1484, other chains not shown): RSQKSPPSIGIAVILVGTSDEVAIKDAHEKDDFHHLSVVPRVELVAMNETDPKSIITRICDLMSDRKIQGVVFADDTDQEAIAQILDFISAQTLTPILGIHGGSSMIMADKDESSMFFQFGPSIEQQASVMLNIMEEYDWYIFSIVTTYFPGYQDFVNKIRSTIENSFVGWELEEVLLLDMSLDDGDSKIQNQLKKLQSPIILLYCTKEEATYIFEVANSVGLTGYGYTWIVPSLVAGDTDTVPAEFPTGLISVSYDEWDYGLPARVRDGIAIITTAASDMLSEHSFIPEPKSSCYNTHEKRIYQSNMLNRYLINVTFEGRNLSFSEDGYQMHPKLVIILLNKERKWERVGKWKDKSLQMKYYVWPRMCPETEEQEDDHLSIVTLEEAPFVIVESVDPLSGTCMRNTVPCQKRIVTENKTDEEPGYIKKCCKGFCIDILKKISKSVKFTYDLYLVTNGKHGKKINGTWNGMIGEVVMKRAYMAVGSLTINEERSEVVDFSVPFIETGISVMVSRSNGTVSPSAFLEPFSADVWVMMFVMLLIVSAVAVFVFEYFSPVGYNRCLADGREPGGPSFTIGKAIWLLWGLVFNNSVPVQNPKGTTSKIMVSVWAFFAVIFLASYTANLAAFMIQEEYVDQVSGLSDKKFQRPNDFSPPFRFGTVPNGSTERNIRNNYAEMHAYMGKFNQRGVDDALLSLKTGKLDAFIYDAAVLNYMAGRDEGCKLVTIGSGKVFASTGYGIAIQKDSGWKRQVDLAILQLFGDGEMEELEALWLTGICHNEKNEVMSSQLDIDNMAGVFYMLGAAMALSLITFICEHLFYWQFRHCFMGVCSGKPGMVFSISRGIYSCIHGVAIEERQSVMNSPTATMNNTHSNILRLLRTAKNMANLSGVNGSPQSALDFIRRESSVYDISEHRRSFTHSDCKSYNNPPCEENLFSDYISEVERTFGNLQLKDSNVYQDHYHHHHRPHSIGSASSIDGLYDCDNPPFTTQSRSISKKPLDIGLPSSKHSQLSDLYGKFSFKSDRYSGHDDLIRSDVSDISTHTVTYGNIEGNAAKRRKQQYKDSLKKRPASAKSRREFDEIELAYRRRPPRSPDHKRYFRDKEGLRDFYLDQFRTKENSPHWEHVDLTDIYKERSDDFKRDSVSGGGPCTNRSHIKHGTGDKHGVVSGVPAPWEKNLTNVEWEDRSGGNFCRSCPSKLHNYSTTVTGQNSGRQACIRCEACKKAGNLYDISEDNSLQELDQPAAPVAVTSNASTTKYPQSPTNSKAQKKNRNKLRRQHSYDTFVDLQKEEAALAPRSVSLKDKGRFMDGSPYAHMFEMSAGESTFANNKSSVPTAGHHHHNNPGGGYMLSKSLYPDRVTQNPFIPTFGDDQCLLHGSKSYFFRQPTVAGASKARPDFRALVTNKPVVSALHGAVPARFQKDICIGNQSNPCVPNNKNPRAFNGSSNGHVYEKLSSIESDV

Compound	GluN2A PCA IWB Ephys % potentiation at 3 μM [1]	EC50 [1] [nM]	Emax [1] [%]	GluN2B PCA IWB Ephys % potentiation at 3 μM [2]	EC50 [2] [nM]	Emax [2] [%]
C[C@H](CCC(C)(C)O)[C@H]1CC[C@H]2[C@@H]3CC[C@H]4C[C@@](C)(O)CC[C@]4(C)[C@H]3C(=O)C[C@]12C [Compound 1]	B (“B” indicates potentiation of >100%)	500 to 1000	100 to 500	B (“B” indicates potentiation of >100%)	500 to 1000	100 to 500
C[C@H](CCC(C)(C)O)[C@H]1CC[C@H]2[C@@H]3CC[C@H]4C[C@@H](O)CC[C@]4(C)[C@H]3C(=O)C[C@]12C [Compound 2]	A (“A” indicates % potentiation up to 100%)	1000 to 10000	< 100	A (“A” indicates % potentiation up to 100%)	500 to 1000	< 100
C[C@H](CCC(C)(C)O)[C@H]1CC[C@H]2[C@@H]3CC=C4C[C@@H](O)CC[C@]4(C)[C@H]3[C@@H](O)C[C@]12C [Compound 3]	A (“A” indicates % potentiation up to 100%)	≥ 10000	< 100	B (“B” indicates potentiation of >100%)	500 to 1000	100 to 500
C[C@H](CCC(C)(C)O)[C@H]1CC[C@H]2[C@@H]3CC=C4C[C@@H](O)CC[C@]4(C)[C@H]3C(=O)C[C@]12C [Compound 4]	B (“B” indicates potentiation of >100%)	100 to 500	100 to 500	B (“B” indicates potentiation of >100%)	100 to 500	100 to 500
CC[C@]1(O)CC[C@@]2(C)C(=CC[C@H]3[C@@H]4CC[C@H]([C@H](C)CCC(C)(C)O)[C@@]4(C)CC(=O)[C@@H]32)C1 [Compound 5]	–	100 to 500	100 to 500	–	100 to 500	100 to 500
CC[C@]1(O)CC[C@@]2(C)C(=CC[C@H]3[C@@H]4CC[C@H]([C@H](C)CC[C@@H](O)C(C)C)[C@@]4(C)CC(=O)[C@@H]32)C1 [Compound 6]	–	1 to 100	100 to 500	–	1 to 100	100 to 500
CC[C@]1(O)CC[C@@]2(C)C(=CC[C@H]3[C@@H]4CC[C@H]([C@H](C)CC[C@H](O)C(C)C)[C@@]4(C)CC(=O)[C@@H]32)C1 [Compound 7]	–	1 to 100	100 to 500	–	1 to 100	100 to 500
CC[C@]1(O)CC[C@@]2(C)C(=CC[C@H]3[C@@H]4CC[C@H]([C@H](C)CC[C@H](O)C(C)(C)C)[C@@]4(C)CC(=O)[C@@H]32)C1 [Compound 9]	–	1 to 100	> 500	–	1 to 100	100 to 500
CC[C@]1(O)CC[C@@]2(C)C(=CC[C@H]3[C@@H]4CC[C@H]([C@H](C)CC[C@@H](O)C(C)(C)C)[C@@]4(C)CC(=O)[C@@H]32)C1 [Compound 10]	–	1 to 100	> 500	–	1 to 100	100 to 500
C[C@H](CCC(C)(C)O)[C@H]1CC[C@H]2[C@@H]3CC=C4C[C@@](C)(O)CC[C@]4(C)[C@H]3C(C)(O)C[C@]12C (some centres unmarked) [Compound 11]	B (“B” indicates potentiation of >100%)	500 to 1000	100 to 500	B (“B” indicates potentiation of >100%)	1000 to 10000	100 to 500
